Common to all, as to assay type: cell-based
Assay [1] deals with Trichophyton metagrophytes. In words: Fungistatic endpoint in inoculated culture medium, T. metagrophytes. The note with it: lowest concentration preventing visible growth, Bushnell-Haas medium with dextrose 10 g/L and yeast extract 0.1 g/L, pH 7.0; for MIC: Trichophyton, read-out: Fungistatic Endpoint (ppm Range) T. metagrophytes. The procedure:
(§1) The microorganisms involved in these tests were Aspergillis niger, Candida albicans, Trichophyton metagrophytes, and Pichia pastoris. The various esters tested are listed in the following table together with their fungistatic endpoints.
(§2) Fungistatic endpoints were determined by combining the compounds at several dosage levels in a culture medium which had been freshly inoculated with spores of the test organisms. Five mL aliquots were placed in sterile culture tubes. The test compounds dissolved in the appropriate solvent were added to obtain the desired concentration of the compound in the culture medium. Following incubation at suitable conditions, the presence of growth was determined visually at each concentration of the biocide. The lowest concentration of the compound preventing growth was taken as the fungistatic endpoint. Controls containing the solvent alone at the highest dosage were made to insure that no microbial inhibition was produced by the solvent.
(§3) The culture media used in these tests was the Bushnell-Haas medium from Difco. Dextrose at 10 g/L and yeast extract at 0.1 g/L were added to obtain growth of the test organisms. The dilute solution of the Bushnell Haas media which was used in these tests contains: 0.20 g/L magnesium sulfate; 0.02 g/L calcium chloride; 1.00 g/L monopotassium phosphate; 1.00 g/L dipotassium phosphate; 1.00 g/L ammonium nitrate, and 0.05 g/L ferric chloride. The final pH of the media was 7.0±0.2 at 25° C.

Assay [2] has as its system Candida albicans. In words: Fungistatic endpoint in inoculated culture medium, Candida albicans. The note with it: lowest concentration preventing visible growth, Bushnell-Haas medium with dextrose 10 g/L and yeast extract 0.1 g/L, pH 7.0; for MIC: Candida albicans, read-out: Fungistatic Endpoint (ppm Range) Candida albicans. The procedure: as §1, §2, §3
In assay [3] the test system is Pichia pastoris. In words: Fungistatic endpoint in inoculated culture medium, Pichia pastoris. The note with it: lowest concentration preventing visible growth, Bushnell-Haas medium with dextrose 10 g/L and yeast extract 0.1 g/L, pH 7.0; for MIC: Komagataella pastoris, read-out: Fungistatic Endpoint (ppm Range) Pichia. pastoris. The procedure: as §1, §2, §3
The subject of assay [4] is Aspergillis niger. In words: Fungistatic endpoint in inoculated culture medium, Aspergillis niger. The note with it: lowest concentration preventing visible growth, Bushnell-Haas medium with dextrose 10 g/L and yeast extract 0.1 g/L, pH 7.0; for MIC: read-out: Fungistatic Endpoint (ppm Range) Aspergillis niger. The procedure:
as §1, §2, §3

Values after ≈ are worked out from the molar mass of the structure shown.

Consider `CC(=O)OCC(C#N)c1cc(OC(F)F)ccc1Cl` (stereo not drawn) [Example 5, 3-acetoxy-2-(2-chloro-5-(difluoromethoxy)phenyl)propanenitrile], for which the MIC in assay [1] and in assay [2] was < 16 µg/mL in each case.

In the case of `CC(=O)OCC(C#N)c1cc(Cl)ccc1Cl` (stereo not drawn) [Example 6, 3-acetoxy-2-(2,5-dichlorophenyl)propanenitrile], the MIC in assay [1] and in assay [2] was < 16 µg/mL each time.

On to `CC(=O)OCC(C#N)c1cc(Cl)ccc1OC(F)F` (stereo not drawn) [Example 7, 3-acetoxy-2-(5-chloro-2-(difluoromethoxy)phenyl)propanenitrile], for which the MIC in assay [1], in assay [2] and in assay [3] was 32 µg/mL (≈ 110 µM) throughout.

Take `CC(=O)OCC(C#N)c1ccc(Cl)cc1Cl` (stereo not drawn) [Example 8, 3-acetoxy-2-(2,4-dichlorophenyl)propanenitrile]: the MIC is 16 to 32 µg/mL (≈ 62 to 124 µM) in assay [1], 16 µg/mL (≈ 62 µM) in assay [2] and < 16 µg/mL in assay [3].

In the case of `CC(=O)OCC(C#N)c1ccccc1C(F)(F)F` (stereo not drawn) [Example 10, 3-acetoxy-2-(2-(trifluoromethyl)phenyl)propanenitrile], the MIC in assay [1] is > 64 µg/mL; in assay [4], 128 to 256 µg/mL (≈ 498 to 995 µM); in assay [2], > 64 µg/mL; in assay [3], > 64 µg/mL.

As for `CC(=O)OCC(C#N)c1ccc(Cl)cc1C` (stereo not drawn) [Example 12, 3-acetoxy-2-(4-chloro-2-methylphenyl)propanenitrile], the MIC in assay [1] was > 64 µg/mL; in assay [4], 64 to 128 µg/mL (≈ 269 to 539 µM); in assay [2] it was > 64 µg/mL; in assay [3], > 64 µg/mL.

`CC(=O)OCC(C#N)c1ccccc1Cl` (stereo not drawn) [Example 14, 3-acetoxy-2-(2-chlorophenyl)propanenitrile]: the MIC in assay [1] was 32 µg/mL (≈ 143 µM); in assay [2] it was 16 µg/mL (≈ 71.5 µM); in assay [3] it was 16 µg/mL (≈ 71.5 µM).

Turning to `CC(=O)OCC(C#N)c1ccc(Cl)cc1` (stereo not drawn) [Example 16, 3-acetoxy-2-(4chlorophenyl)propanenitrile], the MIC in assay [1], in assay [2] and in assay [3] was < 16 µg/mL each time.

Take `CC(=O)OC(C)C(C#N)c1ccc(Cl)cc1` (stereo not drawn) [Example 19, 3-acetoxy-2-(4-chlorophenyl)butanenitrile]: the MIC in assay [1] is 32 to 64 µg/mL (≈ 135 to 269 µM); in assay [2], 16 to 32 µg/mL (≈ 67.3 to 135 µM); in assay [3] it was 16 µg/mL (≈ 67.3 µM).

`COCC(OC(C)=O)C(C#N)c1ccc(Cl)cc1` (stereo not drawn) [Example 20, 3-acetoxy-2-(4-chlorophenyl)-4-methoxybutanenitrile]: the MIC in assay [4] was in the range of 64 to 128 µg/mL (≈ 239 to 478 µM).

For the compound `CC(=O)OCC(C#N)c1ccc(C)cc1` (stereo not drawn) [Example 21, 3-acetoxy-2-(4-methylphenyl)propanenitrile], the MIC in assay [4] was 64 µg/mL (≈ 315 µM).

For the compound `CC(=O)OC(C)C(C#N)c1ccc(C)cc1` (stereo not drawn) [Example 22, 3-acetoxy-2-(4-methylphenyl)butanenitrile], the MIC in assay [4] fell in the range of 128 to 256 µg/mL (≈ 589 to 1180 µM).

As to `COCC(OC(C)=O)C(C#N)c1ccc(C)cc1` (stereo not drawn) [Example 23, 3-acetoxy-2-(4-methylphenyl)-4methoxybutanenitride], the “Fungistatic Endpoint (ppm Range) Aspergillis niger” value in assay [4] is given as 128-256 ppm.

With `COc1ccc(C(C#N)COC(C)=O)cc1` (stereo not drawn) [Example 24, 3-acetoxy-2-(4-methoxyphenyl)propanenitrile], in assay [4], the MIC came out at 128 µg/mL (≈ 584 µM).

For `COc1ccc(C(C#N)C(C)OC(C)=O)cc1` (stereo not drawn) [Example 25, 3-acetoxy-2-(4-methoxyphenyl)butanentrile], the “Fungistatic Endpoint (ppm Range) Aspergillis niger” value in assay [4] is 128-256 ppm.

As for `COCC(OC(C)=O)C(C#N)c1ccc(OC)cc1` (stereo not drawn) [Example 26, 3-acetoxy-2-(4-methoxyphenyl)-4-methoxybutanenitrile], the MIC in assay [4] lay within 128 to 256 µg/mL (≈ 486 to 972 µM).

On to `CCOC(=O)C(OC(C)=O)C(C#N)c1ccc(Cl)cc1` (stereo not drawn) [Example 28, ethyl 2-acetoxy-3-(4-chlorophenyl)-3-cyanopropanoate], for which, in assay [4], the MIC came out at 128 µg/mL (≈ 433 µM).

As for `N#CC(COC=O)c1cc(OC(F)F)ccc1Cl` (stereo not drawn) [Example 29, 2-(2-chloro-5-(difluoromethoxy)phenyl)-3-(formyloxy)propanenitrile], the MIC in assay [1], in assay [4] and in assay [2] was < 16 µg/mL throughout.

For `N#CC(COC=O)c1cc(Cl)ccc1Cl` (stereo not drawn) [Example 30, 2-(2,5-dichlorophenyl)-3-(formyloxy)propanenitrile], the MIC in assay [1], in assay [4] and in assay [2] was < 16 µg/mL each time.

With `N#CC(COC(=O)Cc1ccccc1)c1cc(OC(F)F)ccc1Cl` (stereo not drawn) [Example 31], the “Fungistatic Endpoint (ppm Range) T. metagrophytes” value in assay [1] is <16 ppm. Also, the “Fungistatic Endpoint (ppm Range) Candida albicans” value in assay [2] is recorded as >64 ppm. In addition, the “Fungistatic Endpoint (ppm Range) Pichia. pastoris” value in assay [3] turned out to be 64 ppm.

As for `CC(=O)OCC(C#N)c1ccccc1` (stereo not drawn) [Example 32, 3-acetoxy-2-phenylpropanenitrile], the MIC is 16 µg/mL (≈ 84.6 µM) in assay [1], > 64 µg/mL in assay [2] and 16 to 32 µg/mL (≈ 84.6 to 169 µM) in assay [3].

For the compound `CC(=O)OCC(C#N)c1cccc(Oc2ccccc2)c1` (stereo not drawn) [Example 33], the “Fungistatic Endpoint (ppm Range) Aspergillis niger” value in assay [4] is given as 128-256 ppm.
